Results as given in US11560358B2, “Resveratrol-piperazine co-crystals” (LETAVIS AB, priority 2018, dated 2023).
≈ marks a conversion by molar mass, not a printed value.

Test: physchem
Description: In situ dissolution experiments were performed with a μDISS Profiler apparatus (pION Inc., MA, USA). The system consists of an integrated diode array spectrophotometer connected to a fiber optic UV probe located directly in the reaction vessel (20 ml scintillation vial) and measures the concentration as a function of time, without filtering the solution. Measurement of the dissolution kinetics was carried out at 220 nm and 270 nm, which are optimal for the UV detection of resveratrol and […], respectively. The concentrations of the compounds in the dissolution media (water, buffer pH=4, pH=6) were calculated by means of a standard curve.
The calibration curve was obtained in a mixture of ethanol and water at 8/2 (vol/vol). Stock solutions of resveratrol and resveratrol-piperazine co-crystal, Form 1, respectively, were prepared at 10 mg/ml. The calibration was performed in a 20 ml volume.
The dissolution was performed in 25 mM phosphate buffer (Na2HPO4/KH2PO4) at pH 6, at a concentration of 1 mg/ml resveratrol and resveratrol-piperazine co-crystal, Form 1, respectively. An amount of 20 mg of each compound was dispensed in 20 ml volume of buffer. The process was monitored for 90 minutes.
The calibration was performed in a mixture of ethanol and sodium acetate buffer pH 4.0 at 8/2 (vol/vol) and final concentration of 25 mM sodium acetate. Stock solutions of resveratrol and resveratrol-piperazine co-crystal, Form 1, respectively, were prepared at 10 mg/ml in the solvent mixture. The calibration was performed in 20 ml volume.
The dissolution was performed in 25 mM sodium acetate buffer at pH 4.0, at a concentration of 1 mg/ml resveratrol and resveratrol-piperazine co-crystal, Form 1 (RP1), respectively. An amount of 20 mg compound was dispensed in 20 ml volume of buffer. The process was monitored for 90 minutes.

Compound	aqueous solubility	time maintained in solution, pH 4 buffer versus pH 6 buffer (FIG. 14 and FIG. 13)	solubility compared to that of resveratrol (pH 4)	solubility at 90 min (aqueous buffer, thermodynamic from solid) [µg/mL]
C1CNCCN1.Oc1ccc(C=Cc2cc(O)cc(O)c2)cc1 [resveratrol-piperazine co-crystal, Form 1]	65-100 micrograms/ml	longer than in the case of the pH 6 buffer	three times higher	–
Oc1ccc(C=Cc2cc(O)cc(O)c2)cc1 [resveratrol]	–	–	–	30 (≈ 131 µM)
